# From patent US20150064273A1, “Mesenchymal Stem Cells Conditioned Medium and Methods of Generating and Using the Same” (Gamida-Cell Ltd., priority 2012, published 2015)
# Tests used:
# Assay type in all cases: cell-based
# [1] = system: mesenchymal stem cells; assay: Senescence evaluation assay of cultured MSCs; details: MSCs cultured with nicotinamide
# Experimental: Senescence evaluation assay: Cultured MSCs were stained using the Senescence beta-Galactosidase Staining Kit (Cell Signaling). The cells are fixed and stained for detection of beta-Galactosidase activity at pH 6 using X-Gal and incubation overnight in 37° C. in dry incubator.
# [2] = system: Hepatocyte Growth Factor (HGF); assay: HGF content of MSC conditioned medium by ELISA; details: passage 4; 5 mM NAM, 50 ng/ml FGF4; serum- and FGF4-free medium for 24 hours
# Description: FIG. 22 is a bar graph illustrating enhancement of Hepatocyte Growth Factor (HGF) content of conditioned medium from nicotinamide and FGF4-treated MSC cultures. Bone marrow mesenchymal stem cells were isolated using Ficoll and plastic adherence method, and cultured for several passages with fetal bovine serum, with added nicotinamide and FGF4 (+NAM+FGF4), with added nicotinamide (+NAM−FGF4) and without added nicotinamide or FGF (−NAM−FGF4). Twenty four hours before passage 4, the media was changed and fresh media without fetal bovine serum or FGF4 was added. The cultured media from passage 4 cultures was collected and assayed for HGF content by ELISA. −NAM, −FGF4=control; +NAM−FGF4=5 mM NAM, +NAM+FGF4=5 mM NAM+50 ng/ml FGF4. Note the significant effect of combined FGF4 and nicotinamide on HGF secretion; Mesenchymal stem cells cultured with nicotinamide and FGF4 have enhanced expansion potential, and maintain an undifferentiated state, compared to mesenchymal stem cells cultured in unsupplemented medium, or mesenchymal stem cells cultured with added nicotinamide alone. In order to assess whether mesenchymal stem cells cultured with nicotinamide or nicotinamide and FGF4 modify the culture medium in a unique manner, secretion of biologically active molecules into the culture medium was measured by ELISA, after depletion of the FGF4 from the medium.
# [3] = system: mesenchymal stem cells; assay: MSC cell size (Cedex cell counter) and granularity (side scatter FACS)
# Experimental: Measurement of cell size: Cell size was measured using Cedex Automated Cell Counter (Innovatis). The cells were diluted 1:2 in Trypan Blue (Sigma) and cell size was measured automatically under microscope. Measurement of granularicity: Following trypsin treatment, the cells were analyzed for granularicity by side scatter FACS.
# [4] = system: mesenchymal stem cells; assay: In-vitro wound healing assay on MSC cultures; details: passage 3; 4 days post wound formation
# Experimental: FIGS. 20A-B are photographs illustrating results of an in vitro wound healing assay which was performed on MSCs cultured with (FIG. 20B) or without (FIG. 20A) nicotinamide at passage 3. Wound healing was observed 4 days post wound formation. In-vitro wound healing assay: Wound was performed in MSCs cultures at ˜70% confluence using 200 μl or 1000 μl tip. Four days later the cells were fixated using 10% cold Formalin (Sigma) and stained with Harris Hematoxylin (Sigma). The in-vitro wound healing process was evaluated using microscope.
# [5] = system: bone marrow derived mesenchymal stem cells; assay: Bone marrow derived MSC seeding and expansion with nicotinamide
# Experimental: FIG. 11 is a bar graph illustrating % of BM derived adherent cells expressing mesenchymal stem cells markers in culture seeded +/−NAM, prior to the first passage. Mononuclear cells were isolated from bone marrow using Ficoll and the “plastic adherence” method in the presence or absence of Nicotinamide. Non-adherent cells were washed away 3-4 days later and the media was replaced every 3-4 days. FACS analysis was performed in order to obtain expression levels of surface molecules prior to the first passage (8 days post-seeding). Isolation: Bone marrow derived and adipose tissue derived mesenchymal cells were isolated based on their plastic adherence potential in expansion medium containing: High glucose DMEM and 10% Fetal Bovine Serum (FBS, Hyclone, Logan, Utah, USA) supplemented with 0.05 mg/ml Gentamicin (Sigma) and 2 mM L-glutamine (Biological Industries, Israel). Cells were allowed to adhere for 3-4 days and non-adherent cells were washed out with medium changes. The medium was further exchanged with fresh medium every 3-4 days. Maintenance and expansion: Once adherent cells reached approximately 80-90% confluency, they were detached with 0.25% trypsin-EDTA (Sigma), washed twice in DMEM and 10% Fetal Bovine Serum, with centrifugation, 400 g, 5 minutes, and re-plated at a 1:2 to 1:1000 dilution under the same culture conditions. Measurement of number of cells in culture: Cell number was measured using Cedex Automated Cell Counter (Innovatis). The cells were diluted 1:2 in Trypan Blue (Sigma) and cell number was measured automatically under microscope. Treatment of mesenchymal cultures with nicotinamide: Mesenchymal cultures were initiated as described above, […], or in combination with growth factors or growth factors alone, incubated at 37° C. in a humidified atmosphere of 5% CO2 in air. At each passage and at each medium exchange, the cultures were supplemented with mesenchymal medium, nicotinamide and growth factors.
smiles,measurement,setting,value
"NC(=O)c1cccnc1 [nicotinamide, Nicotinamide]",number of senescent cells following culture,[1],reduced
same,HGF level in conditioned medium,[2],elevated levels
same,cell size / undifferentiated state of MSCs cultured with FGF4,"[3]; FGF4 50 ng/ml, NAM 5 mM, Cedex cell counter",preserves the undifferentiated state
same,cell size and granularity of MSCs grown with nicotinamide vs without,[3]; identical conditions without nicotinamide as comparison,smaller and less granular
same,wound closure capacity of MSCs,[4],higher wound closure capacity
same,expansion rate of bone marrow derived MSCs,"[5]; low concentration of nicotinamide, e.g. 0.1 mM",insignificant effect
same,MSC doubling time,[5]; nicotinamide added from initiation of culture and at each passage,decreasing doubling time
same,seeding efficacy (selection) of bone marrow derived MSCs,[5]; seeded with or without nicotinamide,increased the seeding efficacy
